Experiments:
[1] = tested on: MIA PaCa-2 cells; assay: MIA PaCa-2 cell growth (cell count); type: cell-based; settings: 0.1 uM and higher (up to 10.0 uM); day 2, 4 and 6
Protocol: Cancer is characterized by uncontrolled cell growth. Any agent which can reduce the cellular growth will have high therapeutic potentials. […] MIA PaCa-2 cells (ATCC) were seeded in a 6-well plate (20,000 cells per well) in DMEM containing 25 mM glucose, 10% FBS, 2.5% horse serum in presence or absence of different concentrations of compound-40 as mentioned. Cells were harvested on day 2, day 4 and day 6, and cell numbers were measured. MIA PaCa-2 cells were grown with or without different concentrations of compound-40 (0.0, 0.1, 0.3, 1.0, 3.0 and 10.0 uM) and cell growth was measured by cell count at different time points (day 2, 4 and 6).

[2] = tested on: MIA PaCa-2 cells; assay: BrdU incorporation assay in MIA PaCa-2 cells; type: cell-based; settings: 3 uM
Protocol: Impact of compound-40 on cell proliferation was further evaluated by BrdU incorporation assay. MIA PaCa-2 cells were grown for 4 days in presence or absence of compound-40 (3 uM). After treatment with vehicle control or compound-40 (3 uM), cells were exposed to BrdU. BrdU incorporation was measured using a commercially available kit (Roche) as per manufacturer's protocol.

[3] = tested on: MIA PaCa-2 cells; assay: Cell death (DNA fragmentation) in MIA PaCa-2 cells; type: cell-based
Protocol: Caspase-3 activity was measured using its ability to cleave its substrate (Ac-DEVD-R110). Increased Caspase-3 activity would lead to higher release of fluorescent R110 which was measured at 485 nm excitation and 530 nm emission. Activity of caspase-3 (as nano-moles of R110 released) was normalized to total cellular protein. […] Cell death was measured by increased levels of DNA fragments as per manufacturer's protocol (Roche) and was normalized to total cellular DNA. Data are represented as % of control.

[4] = tested on: DIO mice; assay: Effect of RXR agonist on DIO mice (high fat diet); type: in vivo, male C57BL/6J mice
Protocol: Six week old male C57BL/6J mice were selected, acclimatized for a period of 1 week, Animals were assigned to either chow (10% kcal from fat) or high fat diet (HFD) (D12492; 60% kcal from fat), Research Diets, Inc., New Jersey, USA. Animals were housed in polypropylene cages and maintained at 23±1° C. at 60±10% humidity and 12 hour cycles of light and dark with free access to feed and water (ad libitum). After 11 weeks of the diet intervention, the HFD fed animals were assigned to specific treatment groups based upon body weight, glucose AUC during OGTT, fasting and fed blood glucose and fasting TG. The lean control mice (n=10) were fed with normal chow diet while the treatment group (n=10) and HFD Control (n=10) with high fat diet throughout the experimental period. Treatment group received Compound 40 at a dose of 5-20 mg/kg b.wt, once daily, po as suspension in 1% MC (methyl cellulose) as vehicle. Lean control and HFD controls animals were administered with vehicle.
Weekly body weight & daily feed consumption was recorded. The blood collected from tail vein was subjected for estimation of glucose and TG using Co-agucheck TG strip. OGTT was performed in 6 h fasted mice with 2 g/kg, of oral glucose challenge after 9 weeks of treatment.
Measurement of Thermogenesis: Body temperatures were assessed at the end of treatment period using a rectal probe. For the cold exposure experiment, mice were housed individually and transferred to a cold environment with an ambient temperature of 4° C. Temperature was measured every 15 min for 75 min and then brought to room temperature, then rectal temperature was measured for further 20 min with 10 min interval. After 10 weeks of treatment, blood was collected, from retro-orbital bleeding, for biochemical measurements. Then animals were euthanized and necropsied, the liver was excised immediately, weighed and taken to estimate liver triglyceride (TG). Different adipose depots were separated and weighed.
Animals were sacrificed after terminal measurement of fasting glycerol, free fatty acid, cholesterol, LDL levels.

[5] = tested on: ob/ob mice; assay: Effect of RXR agonist on ob/ob mice; type: in vivo; settings: 3, 10 and 30 mg/kg, BID, po; 4 weeks
Protocol: The male ob/ob and lean mice were procured from Harlon laboratories, acclimatized for a week, were fed a standard laboratory diet. The lean control and the ob/ob mice were 16 weeks old at the start of the study and were randomized to either vehicle or drug (Compound 40, 3, 10 and 30 mg/kg, BID, po) treatment groups by body weight, fed glucose and glucose AUC during an oral glucose tolerance test. The treatment was continued for 4 weeks. Fed glucose and fast triglycerides (tail snip) were monitored weekly. At the end of week 4 of the treatment, Animals were sacrificed […] terminal measurement of fasting glycerol, free fatty acid, cholesterol, LDL levels.

[6] = 5-20 mg/kg b.wt, once daily, po
[7] = 5-20 mg/kg b.wt, once daily, po, 10 weeks
[8] = 5-20 mg/kg b.wt, once daily, po, OGTT after 9 weeks

## CC1(C)CCC(C)(C)c2sc(N(CC3CC3)c3ccc(C(=O)O)cn3)nc21 [Compound 40, 6-[(Cyclopropylmethyl) (4,4,7,7-tetramethyl-4,5,6,7-tetrahydro-1,3-benzothiazol-2-yl)amino]pyridine-3-carboxylic acid]
[1]
  cell growth (cell count): significant reduction in cell growth
[2]; 4 days
  BrdU incorporation: significantly reduced
[2]; RXRa over-expressing cells
  BrdU incorporation in RXRa over-expressing MIA PaCa-2: further reduced the BrdU incorporation
[3]
  cell death (DNA fragmentation): increased cell death
[4]; [6]
  HOMA-IR: improves HOMA-IR
  UCP1 expression levels in inguinal white adipose tissues: significantly enhances
  circulating free fatty acid levels: significant decrease
  circulating glycerol levels: significant decrease
  ectopic fat accumulation: without increasing ectopic fat accumulation
  fasting TG: significantly reduces fasting TG
  fed cholesterol levels: significantly reduces fed cholesterol levels
[4]; [7]
  adipose depot weights: decrease in various adipose depot weights
  body weight gain: significantly reduced body weight gain
[4]; [8]
  glucose disposal (OGTT): improves glucose disposal
  hyperinsulinemia (insulin levels): significantly reduces hyperinsulinemia
[4]; cold exposure 4° C., rectal temperature
  non-shivering thermogenesis: significantly enhances non-shivering thermogenesis
[5]
  LDL-c: decreasing LDL-c
  prandial hyperglycemia (fed glucose): both an early onset and sustained control of prandial hyperglycemia
  total cholesterol: significantly decreased total cholesterol

Reference: patent publication US9862713B2, “Substituted bicyclic heteroaryl compounds as RXR agonists” (CONNEXIOS LIFE SCIENCES PVT. LTD., priority 2014, dated 2018)
